Data published in US11078216B2, “Bisaryl amides as NRF2 activators” (GLAXOSMITHKLINE INTELLECTUAL PROPERTY DEVELOPMENT LIMITED, priority 2016, dated 2021).
Where two headings read alike, the source gives them in different places.

Test system: NRF2 (NQO1 activity as marker for NRF2 activation), BEAS-2B cells
Assay: BEAS-2B NQO1 MTT Assay
Format: cell-based
Conditions: EC50 of NQO1 specific activity induction, 48 hours incubation, read-out: EC50
Procedure, shortened: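 BEAS-2B cells were exposed to compound for 48 h at 37° C, 5% CO2, then lysed. NQO1 activity was measured kinetically by MTT reduction at 570 nm over 30 minutes; EC50 came from 3-parameter fit of Delta OD/min versus log concentration.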

CCCn1cc(CO[C@H](c2ccc(C)c(CN3C[C@@H](C)Cc4ccc(C(F)(F)F)cc4S3(=O)=O)c2)C(C)(C)C(=O)Nc2cccnc2)nn1 [Example 52, (R)-2,2-Dimethyl-3-(4-methyl-3-(((S)-4-methyl-1,1-dioxido-8-(trifluoromethyl)-4,5-dihydrobenzo[f][1,2]thiazepin-2(3H)-yl)methyl)phenyl)-3-((1-propyl-1H-1,2,3-triazol-4-yl)methoxy)-N-(pyridin-3-yl)propanamide]
EC50 (Homo sapiens): 1 to 10 nM

CCCn1cc(CO[C@H](c2ccc(C)c(CN3CC(C)(C)Oc4ccccc4S3(=O)=O)c2)C(C)(C)C(=O)Nc2cccnc2)nn1 [Example 53, (R)-3-(3-((4,4-Dimethyl-1,1-dioxido-3,4-dihydro-2H-benzo[b][1,4,5]oxathiazepin-2-yl)methyl)-4-methylphenyl)-2,2-dimethyl-3-((1-propyl-1H-1,2,3-triazol-4-yl)methoxy)-N-(pyridin-3-yl)propanamide]
EC50 (Homo sapiens): 100 to 1000 nM

CCCn1cc(CO[C@H](c2ccc(C)c(CN3C[C@@H](C)Cc4ccncc4S3(=O)=O)c2)C(C)(C)C(=O)Nc2cccnc2)nn1 [Example 54]
EC50: 10 to 100 nM

CCCn1cc(CO[C@H](c2ccc(C)c(CN3C[C@@H](CC)Oc4ccccc4S3(=O)=O)c2)C(C)(C)C(=O)Nc2cccnc2)nn1 [Example 55, (R)-3-(3-(((R)-4-Ethyl-1,1-dioxido-3,4-dihydro-2H-benzo[b][1,4,5]oxathiazepin-2-yl)methyl)-4-methylphenyl)-2,2-dimethyl-3-((1-propyl-1H-1,2,3-triazol-4-yl)methoxy)-N-(pyridin-3-yl)propanamide]
EC50 (Homo sapiens): 100 to 1000 nM

CCCn1cc(CO[C@H](c2ccc(C)c(CN3C[C@@H](C)Cc4ccc(F)cc4S3(=O)=O)c2)C(C)(C)C(=O)Nc2cccnc2)nn1 [Example 56, (R)-3-(3-(((S)-8-Fluoro-4-methyl-1,1-dioxido-4,5-dihydrobenzo[f][1,2]thiazepin-2(3H)-yl)methyl)-4-methylphenyl)-2,2-dimethyl-3-((1-propyl-1H-1,2,3-triazol-4-yl)methoxy)-N-(pyridin-3-yl)propanamide]
EC50 (Homo sapiens): 100 to 1000 nM

CC[C@H]1Cc2ccccc2S(=O)(=O)N(Cc2cc([C@H](OCc3cn(CC)nn3)C(C)(C)C(=O)Nc3cccnc3)ccc2C)C1 [Example 57, (S)-3-(3-(((S)-4-Ethyl-1,1-dioxido-4,5-dihydrobenzo[f][1,2]thiazepin-2(3H)-yl)methyl)-4-methylphenyl)-3-((1-ethyl-1H-1,2,3-triazol-4-yl)methoxy)-2,2-dimethyl-N-(pyridin-3-yl)propanamide]
EC50 (Homo sapiens): 10 to 100 nM

CCn1cc(CO[C@@H](c2ccc(C)c(CN3C[C@@H](C)Cc4ncccc4S3(=O)=O)c2)C(C)(C)C(=O)Nc2cccnc2)nn1 [Example 58, (S)-3-((1-Ethyl-1H-1,2,3-triazol-4-yl)methoxy)-2,2-dimethyl-3-(4-methyl-3-(((S)-4-methyl-1,1-dioxido-4,5-dihydropyrido[2,3-f][1,2]thiazepin-2(3H)-yl)methyl)phenyl)-N-(pyridin-3-yl)propanamide]
EC50 (Homo sapiens): 100 to 1000 nM

CCn1nnc2c(C)c([C@H](c3ccc(C)c(CN4C[C@H](C)Cc5ccccc5S4(=O)=O)c3)C(C)(C)C(=O)Nc3cccnc3)cc(OC)c21 [Example 59, (S)-3-(1-Ethyl-7-methoxy-4-methyl-1H-benzo[d][1,2,3]triazol-5-yl)-2,2-dimethyl-3-(4-methyl-3-(((R)-4-methyl-1,1-dioxido-4,5-dihydrobenzo[f][1,2]thiazepin-2(3H)-yl)methyl)phenyl)-N-(pyridin-3-yl)propanamide]
EC50 (Homo sapiens): 100 to 1000 nM

CC[C@@H]1CN(Cc2cc([C@H](c3cc(OC)c4c(nnn4CC)c3C)C(C)(C)C(=O)Nc3cccnc3)ccc2C)S(=O)(=O)c2ccccc2O1 [Example 60, (R)-3-(3-(((R)-4-Ethyl-1,1-dioxido-3,4-dihydro-2H-benzo[b][1,4,5]oxathiazepin-2-yl)methyl)-4-methylphenyl)-3-(1-ethyl-7-methoxy-4-methyl-1H-benzo[d][1,2,3]triazol-5-yl)-2,2-dimethyl-N-(pyridin-3-yl)propanamide]
EC50 (Homo sapiens): 100 to 1000 nM

COc1cc(C(CC(=O)Nc2cccnc2)c2ccc(C)c(CN3C[C@@H](C)Cc4ccc(C(F)(F)F)cc4S3(=O)=O)c2)cc2nnn(C)c12 (stereo partly shown) [Example 61]
EC50: 10 to 100 nM

COc1cc([C@@H](CC(=O)Nc2cccnc2)c2ccc(C)c(CN3C[C@@H](C)Oc4ccccc4S3(=O)=O)c2)cc2nnn(C)c12 [Example 62, (S)-3-(7-Methoxy-1-methyl-1H-benzo[d][1,2,3]triazol-5-yl)-3-(4-methyl-3-(((R)-4-methyl-1,1-dioxido-3,4-dihydro-2H-benzo[b][1,4,5]oxathiazepin-2-yl)methyl)phenyl)-N-(pyridin-3-yl)propanamide]
EC50 (Homo sapiens): 10 to 100 nM

CCn1nnc2c(C)c([C@H](c3ccc(C)c(CN4C[C@@H](C)Cc5ccc(C(F)(F)F)cc5S4(=O)=O)c3)C(C)(C)C(=O)Nc3cccnc3)cc(OC)c21 [Example 63, (S)-3-(1-Ethyl-7-methoxy-4-methyl-1H-benzo[d][1,2,3]triazol-5-yl)-2,2-dimethyl-3-(4-methyl-3-(((S)-4-methyl-1,1-dioxido-8-(trifluoromethyl)-4,5-dihydrobenzo[f][1,2]thiazepin-2(3H)-yl)methyl)phenyl)-N-(pyridin-3-yl)propanamide]
EC50 (Homo sapiens): 1 to 10 nM

CC[C@@H]1CN(Cc2cc([C@@H](c3cc(OC)c4c(nnn4CC)c3C)C(C)(C)C(=O)Nc3cccnc3)ccc2C)S(=O)(=O)c2ccccc2O1 [Example 64, (S)-3-(3-(((R)-4-Ethyl-1,1-dioxido-3,4-dihydro-2H-benzo[b][1,4,5]oxathiazepin-2-yl)methyl)-4-methylphenyl)-3-(1-ethyl-7-methoxy-4-methyl-1H-benzo[d][1,2,3]triazol-5-yl)-2,2-dimethyl-N-(pyridin-3-yl)propanamide]
EC50 (Homo sapiens): 1 to 10 nM

CC[C@@H]1CN(Cc2cc([C@H](CC(=O)Nc3cccnc3)c3cc(OC)c4c(nnn4CC)c3C)ccc2C)S(=O)(=O)c2cccnc2O1 [Example 65, (S)-3-(3-(((R)-4-Ethyl-1,1-dioxido-3,4-dihydro-2H-pyrido[2,3-b][1,4,5]oxathiazepin-2-yl)methyl)-4-methylphenyl)-3-(1-ethyl-7-methoxy-4-methyl-1H-benzo[d][1,2,3]triazol-5-yl)-N-(pyridin-3-yl)propanamide]
EC50 (Homo sapiens): 10 to 100 nM

CCn1nnc2c(C)c([C@H](c3ccc(C)c(CN4C[C@@H](C)Cc5cc(C(F)(F)F)ccc5S4(=O)=O)c3)C(C)(C)C(=O)Nc3cccnc3)cc(OC)c21 [Example 66, (S)-3-(1-Ethyl-7-methoxy-4-methyl-1H-benzo[d][1,2,3]triazol-5-yl)-2,2-dimethyl-3-(4-methyl-3-(((S)-4-methyl-1,1-dioxido-7-(trifluoromethyl)-4,5-dihydrobenzo[f][1,2]thiazepin-2(3H)-yl)methyl)phenyl)-N-(pyridin-3-yl)propanamide]
EC50 (Homo sapiens): 10 to 100 nM

CC[C@@H]1CN(Cc2cc([C@H](CC(=O)Nc3nn[nH]n3)c3ccc4c(nnn4CC)c3C)ccc2C)S(=O)(=O)c2cccnc2O1 [Example 67, (S)-3-(3-(((R)-4-Ethyl-1,1-dioxido-3,4-dihydro-2H-pyrido[2,3-b][1,4,5]oxathiazepin-2-yl)methyl)-4-methylphenyl)-3-(1-ethyl-4-methyl-1H-benzo[d][1,2,3]triazol-5-yl)-N-(2H-tetrazol-5-yl)propanamide]
EC50 (Homo sapiens): 100 to 1000 nM
